Measurements published in US6448289B1, “Method for repelling arthropods” (priority 2000, dated 2002).

Key:
[1] = test system: yellow fever mosquitoes (Aedes aegypti); assay: Repellency test against yellow fever mosquitoes on treated chick abdomen; type: in vivo; details: dosage 3 g/m^2, ethanol solution on chick abdomen
Protocol: Fifty adult yellow fever mosquitoes (Aedes aegypti, approximately equal number of female and male) which were about 3 weeks old after emergence were released in a cage (22 cm×22 cm×30 cm, made of stainless steel and nylon gauge).
A chick whose abdominal feathers had been removed with haircutter was fixed on a wood board (7 cm×15 cm) having a hole of 2.5 cm×4 cm so that its abdominal skin was exposed. Next, the ethanol solution (90 μl) prepared according to Production example 1 was treated on the exposed area of the chick. The chick treated the solution on its abdomen was put on the cage, and the treated abdomen was exposed to the cage just after treating and after 3 hours from treating. After 1, 2 and 4 minutes from putting the chick, the number of yellow fever mosquitoes on the abdomen was counted and summed up. The test was repeated twice.
Further, the same procedure was performed using a chick treated ethanol without active ingredient on its abdomen, and the number of yellow fever mosquitoes on the abdomen was counted. […] [formula]
Furthermore, the same procedure was performed using ethanol solution (90 μl) prepared according to Production example 1, provided that DEET was used in place of Compound [A] for comparison.

[2] = test system: German cockroaches (Blattella germanica); assay: Repellency test against German cockroaches with impregnated filter paper triangular pillar; type: in vivo; details: 24 hours later, dosage 833 mg/m^2; for No. of cockroaches (German cockroaches in the triangular pillar): test repeated twice
Protocol: A triangular pillar (3 cm-equilateral triangle of opening, 6 cm in length) was prepared with filter paper, and the acetone solution (0.9 ml) prepared according to Production example 2 was impregnated with the triangular pillar uniformly and air-dried for 5 to 10 minutes.
In a 650 cc volume plastic cup, said triangular pillar was placed horizontally, German cockroaches (Blattella germanica, 5 males and 5 females) were placed in said plastic cup, covered with nylon gauze, and then observed the number of German cockroaches in the triangular pillar 24 hours later. The test was repeated twice.
Further, the same procedure was performed using a triangular pillar of filter paper impregnated acetone without active ingredient, and the number of German cockroaches in the triangular pillar 24 hours later was counted. […] [formula]
Furthermore, the same procedure was performed using acetone solution prepared according to Production example 2, provided that DEET or MGK874 was used in place of Compound [A] for comparison.

| Compound | No. of mosquitoes (sum of yellow fever mosquitoes on the abdomen of the chick after 1, 2 and 4 minutes) ([1]; After 3 hours) | Repellency (%) ([1]; After 3 hours) | No. of mosquitoes (sum of yellow fever mosquitoes on the abdomen of the chick after 1, 2 and 4 minutes) ([1]; Immediately after treating) | Repellency (%) ([1]; Immediately after treating) | Repellency (%) [2] | No. of cockroaches (German cockroaches in the triangular pillar) [2] |
| --- | --- | --- | --- | --- | --- | --- |
| CCN(CC)C(=O)c1cccc(C)c1 [DEET, N,N-diethyl-m-toluamide] | 3 | 96.5% | 0 | 100% | 0% | 20 |
| Cc1cc(O)c(C(=O)CCC(C)C)c(=O)o1 [Compound [A], 4-hydroxy-6-methyl-3-(4-methylpentanoyl)-2-pyrone] | 0 | 100% | 0 | 100% | 90% | 2 |
| CCCCCCCCSCCO [MGK874, 2-(octylthio)ethanol] | – | – | – | – | 15% | 17 |
